This is an account of results in patent US11306063B2, “Heterocyclic naphthoquinones derivatives for use in the treatment of cancers including Cushing disease” (Commissariat a l'Energie Atomique et aux Energies …, priority 2016, dated 2022).

One test deals with H1975 cells. Kind of test: Cytotoxicity assay (PrestoBlue cell viability), H1975. It counts as cell-based, human. On the procedure: (§1) Messa, Messa DX5, HCT116, HEK-293, PC-3, LNCaP, HCC827 and H1975 cell lines are issued from the American Type Culture Collection (ATCC).
(§2) For cytotoxicity assays, cells were seeded in 96-well microplates 24 hours before the addition of increasing concentrations of each compound in the culture medium. Cell viability was analyzed 48 hours following addition of each compound through the monitoring of mitochondrial […] activity using PrestoBlue® Cell Viability Reagent (Invitrogen; #A-13261). Paclitaxel was used as a control which is cytotoxic on various cancerous cells although not on chemoresistant MESSA DX5 lineage.

The test system of test [1] is PC-3 prostatic cancer cells. The test can be described thus: Cell growth inhibition and cell death induction (Incucyte), PC-3. In kind it is cell-based, human. Particulars: 48 hours, FIG. 12C,D. An excerpt:
FIG. 12: The cell growth inhibition and cell death induction of non-small cell lung cancers (NSCLC), HCC827 cells and derivative Gefitinib-resistant clone H1975 (FIG. 12 A,B) and of PC-3 (FIG. 12 C,D) and LnCAP (FIG. 12 E,F) were monitored using Incucyte microscope. Histogram represent in A,C,E: the final cell area relative to the total well area in (%) and in B,D,F: the fluorescent area in μm2. Error bars indicate standard deviation between 6 technical replicates.
The cell growth inhibition and cell death induction of non-small cell lung cancers (NSCLC), HCC827 cells and derivative Gefitinib-resistant clone H1975 were monitored during a period of 72 hours using Incucyte microscope and dedicated programs allowing to monitor cell confluency (i.e.: cell surface area relative to total well surface) and cell death induction by adding Propidium Iodide (PI) at 1 μg/ml (Sigma Aldrich #P4864) in the culture medium.

The next test has as its system PC-3 cells. Kind of test: Cytotoxicity assay (PrestoBlue cell viability), PC-3. In kind it is cell-based. Particulars: Homo sapiens, 48 hours treatment. On the procedure: as §1
(§3) Messa, Messa DX5 and HCT116 were maintained in McCoy's supplemented with 10% fetal bovine serum, and 1% penicillin/streptomycin. PC-3, LNCaP cells were maintained in RPMI medium supplemented with 10% fetal bovine serum, and 1% penicilin/streptomycin and in the case of Messa DX5: 500 nM Doxorubicin was added to maintain selection pressure. HEK293 were maintained in DMEM medium supplemented with 10% fetal bovine serum, and 1% penicillin/streptomycin. Cells were maintained at 37° C. with 5% CO2, 95% air, and humid atmosphere. In the case of hormonal dependent LNCaP cells, 2 μM DiHydroTestosterone (DHT) was added or not—depending on the type of biological assay—for the same incubation period as compounds.
as §2

The target in test [2] is T1, USP2^CD (purified catalytic domain of USP2) (Homo sapiens, UniProt O75604).
T1 construct: The purified catalytic domain of USP2 (USP2^CD, in-house purified); His; made in house; host or cells: E. coli BL21 Gold
T1 sequence (O75604 267-599 limits assumed): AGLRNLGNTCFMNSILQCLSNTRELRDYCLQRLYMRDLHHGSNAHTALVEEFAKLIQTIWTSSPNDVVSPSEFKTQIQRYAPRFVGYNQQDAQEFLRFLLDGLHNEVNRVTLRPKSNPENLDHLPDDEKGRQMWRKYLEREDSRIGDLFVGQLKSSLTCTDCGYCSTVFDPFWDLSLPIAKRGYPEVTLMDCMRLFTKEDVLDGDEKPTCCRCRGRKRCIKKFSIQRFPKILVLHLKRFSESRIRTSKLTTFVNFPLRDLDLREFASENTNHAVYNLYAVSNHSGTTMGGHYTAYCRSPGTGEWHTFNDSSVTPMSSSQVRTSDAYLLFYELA
The test can be described thus: Inhibition of purified USP2^CD enzymatic activity (Ub-AMC or Ub-Rho substrate). It counts as biochemical. Particulars: for inhibition of USP2^CD activity (IC50 range, FIG. 1): Ub-Rho substrate (0.1 μM); for inhibition at 0.01 µM: 0.01 μM compound; for inhibition at 0.05 µM: 0.05 μM compound; for inhibition at 0.1 µM: 0.1 μM compound; for inhibition at 0.5 µM: 0.5 μM compound; for inhibition at 1 µM: 1 μM compound; for inhibition at 5 µM: 5 μM compound; for inhibition at 10 µM: 10 μM compound; for inhibition at 25 µM: 25 μM compound; for inhibition at 50 µM: 50 μM compound. The essentials: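 His-tagged catalytic domain expressed in E. coli and Ni/gel-filtration purified; assayed in 50 mM HEPES pH 7.6 or 40 mM Tris pH 7.4 with 1 mM DTT. Compound added just before Ub-AMC or Ub-Rho substrate; fluorescence from hydrolysis followed over 20 or 30 min, median of duplicates.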

Another test has as its system LNCaP cells. Kind of test: Cytotoxicity assay (PrestoBlue cell viability), LNCaP. The following applies: Homo sapiens, 48 hours treatment. In kind it is cell-based. On the procedure: as §1, §3, §2
A further test has as its system HEK293 cells. The test can be described thus: Cytotoxicity assay (PrestoBlue cell viability), HEK293. In kind it is cell-based. Particulars: Homo sapiens, 48 hours treatment. On the procedure: as §1, §3, §2
Setting [3] is: Ub-AMC substrate at 1 μM, Table 2b, read-out: IC50 USP2 CD.

The structures appear in SMILES notation. Where two headings read alike, the source gives them in different places.

Consider `CCCCS(=O)(=O)Cc1nc2c(nc1CS(=O)(=O)CCCC)C(=O)c1ccccc1C2=O` [PCR6236], for which the EC50 – broadly, the concentration giving half of the maximal effect – in the test on H1975 cells (48 hours treatment, Gefitinib resistant cells) was 3000 nM; in the test with H1975 cells (Homo sapiens, NCI-H1975, 48 h, 48 hours treatment, Gefitinib resistant cells), not above 3000 nM; in the test on PC-3 cells it was 800 nM; in the test with LNCaP cells it was 2000 nM; with HEK293 cells, 1400 nM. In addition, the “cell growth inhibition and cell death induction, PC-3” value in test [1] was “inhibit cell growth and induce cell death in a dose dependent manner”. Further, the IC50 (usually the concentration needed to halve the response being measured) in test [2] is 2100 nM. Moreover, the “inhibition of USP2^CD activity (IC50 range, FIG. 1)” value in test [2] was “in the micromolar range”.
`O=C1c2ccccc2C(=O)c2nc(CS(=O)(=O)c3ccccc3F)c(CS(=O)(=O)c3ccccc3F)nc21` [OVM24] had an EC50 with H1975 cells (Homo sapiens, NCI-H1975, 48 h) of 2000 nM. In addition, the “cell growth inhibition and cell death induction, PC-3” value in test [1] is “inhibit cell growth and induce cell death in a dose dependent manner”. For the same compound, the EC50 with PC-3 cells came out at 2500 nM. In addition, in test [2] (Table 1c), the inhibition (as a rule, the drop in the measured response relative to a control, in per cent) at 0.01 µM is -29%; the inhibition at 0.05 µM is 2%; the inhibition at 0.1 µM came out at 9%; the inhibition at 0.5 µM was 10%. For the same compound, in test [2] (Table 1c), the inhibition at 1 µM was found to be 12%, the inhibition at 5 µM is 20% and the inhibition at 10 µM stood at 17%. Besides, in test [2] (Table 1b), the inhibition at 1 µM came to 54%, the inhibition at 5 µM turned out to be 68%, the inhibition at 25 µM amounted to 86% and the inhibition at 50 µM turned out to be 96%. Besides, the IC50 in test [2] (setting [3]) was more than 10000 nM. Besides, the EC50 in the test with LNCaP cells was found to be 1300 nM. In addition, in the test with HEK293 cells, the midpoint of the response, the EC50, lay at 2500 nM.
On to `CCCS(=O)(=O)Cc1nc2c(nc1CS(=O)(=O)CCC)C(=O)c1ccccc1C2=O` [VIN6074], for which, in the test with H1975 cells (Homo sapiens, NCI-H1975, 48 h), the EC50 was 2000 nM. Further, the “cell growth inhibition and cell death induction, PC-3” value in test [1] is “inhibit cell growth and induce cell death in a dose dependent manner”. In addition, in the test on PC-3 cells, the EC50 amounted to 2300 nM. Besides, in test [2] (Table 1c), the inhibition at 0.01 µM came to 1%, the inhibition at 0.05 µM was -13%, the inhibition at 0.1 µM is -23% and the inhibition at 0.5 µM worked out at 23%. In addition, in test [2] (Table 1c), the inhibition at 1 µM was 17%, the inhibition at 5 µM worked out at 70% and the inhibition at 10 µM was 77%. For the same compound, in test [2] (Table 1b), the inhibition at 1 µM came to 38%, the inhibition at 5 µM turned out to be 81%, the inhibition at 25 µM stood at 98% and the inhibition at 50 µM came out at 101%. For the same compound, the IC50 in test [2] (setting [3]) worked out at 3000 nM. The IC50 in test [2] (Ub-Rhodamine substrate at 0.1 μM, Table 2c, read-out: IC50 USP2 CD) was determined as 500 nM. It took 1900 nM to reach a half-maximal effect in the test with LNCaP cells (EC50). This compound displayed an EC50 in the test with HEK293 cells of 1500 nM.
For the compound `CCCCS(=O)(=O)Cc1nc2c(o1)C(=O)c1ccccc1C2=O` [PCR9301], the EC50 in the test on PC-3 cells was 1000 nM. Further, in test [2] (Table 3a), the inhibition at 1 µM is 77%, the inhibition at 5 µM turned out to be 99%, the inhibition at 25 µM stood at 100% and the inhibition at 50 µM turned out to be 100%. Moreover, the “inhibition of USP2^CD activity (IC50 range, FIG. 1)” value in test [2] is “in the micromolar range”. Besides, the IC50 in test [2] (Ub-Rho substrate, Table 3b, read-out: IC50 against purified USP2^CD) stood at 400 nM. The compound also returned an EC50 in the test with LNCaP cells of 1300 nM.
